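Assay format: 96-well plates, 48-hour exposure. GI50 is the concentration that inhibits growth by half.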 Calls of active or inactive are those of the source. Cut-off read from the data, not from the text of the source: active = GI50 up to about 1.1 µM and inactive = higher.

This is an account of results in ChEMBL document CHEMBL1201862, “PubChem BioAssay data set” (2004).

Among the test systems are A549; HCT-116; SK-MEL-2; TK-10; SK-MEL-5; A498; RPMI-8226; NCI-H226; HT-29; SF-295; OVCAR-8; LOX IMVI; CCRF-CEM; EKVX; 786-0; SR; UACC-257; SW-620; MDA-MB-231.
Common to all, as to test: DTP human tumour cell line panel, 48 h

The term GI50 denotes the concentration that inhibits growth by half. As for `CC(=O)Oc1ccc2c(c1)C(=O)c1nc(C)c(C)nc1C2=O`, the GI50 with A549 is 43.7 µM (inactive); with HCT-116, 43.7 µM (inactive); with SK-MEL-2 it was 39.6 µM (inactive); in the assay on TK-10, > 100 µM (inactive); in the assay with SK-MEL-5 it was 16.2 µM (inactive); in the assay on A498 it was > 63.4 µM (inactive). The GI50 in the assay with RPMI-8226 is 39.8 µM (inactive); in the assay on NCI-H226 it was 38.7 µM (inactive); in the assay with HT-29, 31.8 µM (inactive); with SF-295, 49.9 µM (inactive); in the assay with OVCAR-8, 45.1 µM (inactive); in the assay with LOX IMVI it was 39.4 µM (inactive). Further, the GI50 in the assay with CCRF-CEM is 35.4 µM (inactive); in the assay on EKVX, > 48.6 µM (inactive); in the assay on 786-0, 37.2 µM (inactive); in the assay with SR it was 29.6 µM (inactive); in the assay with UACC-257 it was 36.6 µM (inactive); in the assay with SW-620 it was 46.5 µM (inactive).

For `Brc1ccc(-c2cc3c(cc2C2SCCS2)OCO3)cc1`, the GI50 in the assay on A549 is 18.2 µM (inactive); in the assay with HCT-116, 30.1 µM (inactive); with SK-MEL-2 it was 28.8 µM (inactive); in the assay on TK-10 it was 31.5 µM (inactive); in the assay on SK-MEL-5, 23.3 µM (inactive); with A498 it was 19 µM (inactive). The GI50 in the assay with NCI-H226 is 8.17 µM (inactive); with HT-29, 33.3 µM (inactive); with SF-295 it was 28.2 µM (inactive); with OVCAR-8 it was 50.1 µM (inactive); in the assay on LOX IMVI, 0.359 µM (active); with CCRF-CEM it was 19.3 µM (inactive). Also, the GI50 with EKVX is 10.7 µM (inactive); in the assay with 786-0 it was 26.9 µM (inactive); in the assay with SR it was 18.4 µM (inactive); with UACC-257, 30 µM (inactive); with SW-620, 25.6 µM (inactive).

For `S=C1CNC(=S)CN1`, the GI50 with A549, with HCT-116, in the assay with SK-MEL-2, in the assay on TK-10, with SK-MEL-5 and with A498 was > 100 µM (inactive) in each case. Moreover, the GI50 in the assay with RPMI-8226, in the assay with NCI-H226, in the assay with HT-29, with SF-295, with OVCAR-8 and with LOX IMVI was > 100 µM (inactive) each time. Further, the GI50 in the assay on CCRF-CEM, in the assay on 786-0, with SR, in the assay on UACC-257 and with SW-620 was > 100 µM (inactive) throughout.

For `Cn1c(=O)n(C2(C)CSC2)c2ccccc21`, the GI50 with A549, in the assay on HCT-116, in the assay on TK-10, in the assay with SK-MEL-5, in the assay with A498 and in the assay with RPMI-8226 was > 100 µM (inactive) throughout. Further, the GI50 in the assay on NCI-H226, in the assay on HT-29, in the assay on SF-295, with OVCAR-8, in the assay with LOX IMVI and with CCRF-CEM was > 100 µM (inactive) each time. In addition, the GI50 in the assay on EKVX, with 786-0, in the assay with SR, in the assay on UACC-257 and in the assay with SW-620 was > 100 µM (inactive) each time.

For the compound `Cc1ccc(S(=O)(=O)N/N=C/CN2C(=O)c3ccccc3C2=O)cc1`, the GI50 with A549, in the assay with HCT-116, in the assay on SK-MEL-2, with TK-10, with SK-MEL-5 and in the assay on A498 was > 100 µM (inactive) in each case. Also, the GI50 with RPMI-8226 was > 100 µM (inactive); in the assay on NCI-H226, 82.2 µM (inactive); in the assay with HT-29, > 100 µM (inactive); in the assay on SF-295 it was > 100 µM (inactive); with OVCAR-8, > 100 µM (inactive); with LOX IMVI, > 100 µM (inactive). For the same compound, the GI50 with CCRF-CEM, with EKVX, in the assay on 786-0, in the assay on SR, with UACC-257 and in the assay on SW-620 was > 100 µM (inactive) throughout.

In the case of `O=[N+]([O-])c1ccc(Cl)c(C2SCc3nc4ccccc4n32)c1` (stereo not drawn), the GI50 is 44.9 µM (inactive) in the assay with A549; 31.6 µM (inactive) in the assay on HCT-116; 50.9 µM (inactive) in the assay on SK-MEL-2; 64.6 µM (inactive) with TK-10; 16.5 µM (inactive) in the assay on SK-MEL-5; 32.3 µM (inactive) in the assay with A498. In addition, the GI50 was 31.2 µM (inactive) in the assay with RPMI-8226; 24.1 µM (inactive) with NCI-H226; 36 µM (inactive) in the assay on HT-29; 32.6 µM (inactive) in the assay on SF-295; 43.3 µM (inactive) with OVCAR-8; 28 µM (inactive) with CCRF-CEM. Also, the GI50 in the assay on EKVX was 42.4 µM (inactive); in the assay with 786-0, 72.3 µM (inactive); in the assay with SR, 32.1 µM (inactive); with UACC-257 it was 28.1 µM (inactive); with SW-620 it was 35 µM (inactive).

Take `CNC(=O)C1CCc2nnc(-c3ccccc3)n21` (stereo not drawn): the GI50 with A549, with HCT-116, in the assay with SK-MEL-2, with TK-10, in the assay on SK-MEL-5 and in the assay with A498 was > 100 µM (inactive) each time. The GI50 in the assay on RPMI-8226 is > 100 µM (inactive); in the assay on NCI-H226, > 100 µM (inactive); with CCRF-CEM it was > 100 µM (inactive); in the assay with EKVX, 55.2 µM (inactive); in the assay on 786-0, > 100 µM (inactive); in the assay with SR, > 100 µM (inactive). For the same compound, the GI50 in the assay with UACC-257 and with SW-620 was > 100 µM (inactive) in each case.

For the compound `Cc1ccc2nc(CN3CCCC(O)C3)cc(=O)n2c1` (stereo not drawn), the GI50 with A549, in the assay with HCT-116, with SK-MEL-2, in the assay with TK-10, with RPMI-8226 and with NCI-H226 was > 100 µM (inactive) throughout. The GI50 in the assay on HT-29, with SF-295, in the assay on MDA-MB-231, in the assay with OVCAR-8, in the assay with LOX IMVI and with CCRF-CEM was > 100 µM (inactive) each time. Further, the GI50 in the assay on EKVX, with 786-0, in the assay with SR, in the assay on UACC-257 and with SW-620 was > 100 µM (inactive) throughout.

Turning to `O=C1Nc2c(Cl)cc(Cl)cc2C1=O`, the GI50 in the assay on A549 is 19.3 µM (inactive); in the assay with HCT-116 it was 19.3 µM (inactive); in the assay on SK-MEL-2, 13.9 µM (inactive); with TK-10 it was 95.9 µM (inactive); with SK-MEL-5, 15.3 µM (inactive); in the assay with A498, 23.2 µM (inactive). In addition, the GI50 in the assay on NCI-H226 was 18.5 µM (inactive); with HT-29, 27.4 µM (inactive); in the assay on SF-295 it was 17.1 µM (inactive); in the assay with MDA-MB-231, 21.2 µM (inactive); in the assay with OVCAR-8 it was 16.9 µM (inactive); with LOX IMVI it was 14.4 µM (inactive). Also, the GI50 with CCRF-CEM was 21.3 µM (inactive); with EKVX, 14.6 µM (inactive); with 786-0, 17.3 µM (inactive); in the assay on SR, 12.2 µM (inactive); with UACC-257 it was 18.6 µM (inactive); with SW-620 it was 18.5 µM (inactive).
